Converted amounts (≈) assume the structure as drawn. “Also recorded” adds a separate entry of the source. Where two headings read alike, the source gives them in different places.
Key:
[1] = tested on: influenza A virus (strain A/WSN/33 (H1N1)); details: for IC50: read-out: IC50 IAV (Strain WSN/33 (H1N1)), A549 cells
[2] = tested on: influenza A virus (strain A/WSN/33 (H1N1)); experiment: microbe, parasite or virus in culture; details: A549, 24 h, read-out: IC50 IAV (Strain WSN/33 (H1N1)), A549 cells
[3] = in vitro; details: human
Protocol: (§1) A549 and MDCK cells were seeded in 96-well plates and grown overnight. […] Next, 15 µL of sterile water or Triton X-100 10% (CytoSelect^TM LDH Cytotoxicity Assay Kit) were added to each well in DMEM or MEM, for 10 min, at room temperature. Supernatants were collected and stored at −80 °C until used. Supernatants (90 µL) were transferred to clean 96-well plates and 10 µL of LDH Reagent (CytoSelect^TM LDH Cytotoxicity Assay Kit) were added to each sample and incubated for 20 min. Quantification was performed using a spectrophotometer at 405 nm. The concentration of each sample that reduced cell viability by 50% was estimated as CC50.

[4] = in vitro; details: dog
Protocol: as §1

[5] = tested on: influenza A virus (strain A/WSN/33 (H1N1)); experiment: microbe, parasite or virus in culture; details: MDCK, 24 h, read-out: IC50 IAV (Strain WSN/33 (H1N1)), MDCK cells
[6] = tested on: influenza A virus (strain A/WSN/33 (H1N1))
[7] = tested on: IAV (strain A/PR/8/34); set-up: method as in PMID 21899996; details: MDCK cells, cited from earlier work
[8] = tested on: human tumor-free lung tissue explants; experiment: Viability of human tumor-free lung explants (LDH release); details: treated lung tissues, 48 h p.i.
[9] = tested on: influenza A virus (A/Panama/2007/1999 (H3N2))
[10] = tested on: influenza A virus (strain A/WSN/33 (H1N1)) RNA transcription; format: cell-based
[11] = biological target: IAV polymerase (PB1, PB2, PA, NP) (Influenza A virus, UniProt P03427+P03430+P15659); format: cell-based
[12] = tested on: influenza A virus (strain A/WSN/33 (H1N1)) proteins PB1, NP, M1, NS1; format: cell-based
[13] = tested on: Na+/K+-ATPase; set-up: method as in PMID 30798081; details: cited from earlier work
[14] = biological target: viral polymerase complex (PA, PB1, NP, Strep-PB2) (Influenza A virus, UniProt P03427+P03430+P15659); format: cell-based
[15] = tested on: influenza A virus (A/Panama/2007/1999 (H3N2)); set-up: method as in PMID 31826721; details: pre-treatment for 1 h, human lung tissues, IAV A/Panama/2007/1999 (H3N2); cited from earlier work

Row | Structure (SMILES) | reduction of viral titers [1] | IC50 [2] | IC50 [5] | tissue integrity / tissue toxicity (LDH release) [8] | IC50 [1] | viral replication / viral titers [9] | viral mRNA levels (NP segment 5, M1 segment 7) [10] | decrease of polymerase activity [11] | early (NS1, NP, PB1) and late (M1) viral protein expression [12] | CC50 [3] | CC50 [4] | Na+/K+-ATPase inhibition [13] | viral polymerase complex assembly (PA, PB1, NP in complex precipitates) [14] | fold by which the IC50 of oleandrigenin-β-D-glucosyl (1→4)-β-D-digitalose is higher than that of the compound [6] | further results
1 | C[C@]12CC[C@H](O)C[C@H]1CC[C@@H]1[C@@H]2CC[C@]2(C)[C@@H](C3=CC(=O)OC3)CC[C@]12O [Digitoxigenin, digitoxigenin, reference compound] | > 50% | 70 ± 10 nM | 72 ± 5 nM |  |  |  |  |  |  |  |  |  |  |  | SI (CC50/IC50), A549 cells [1]: 92.366; CC50 at 24 h [3]: > 5 µM; CC50 at 24 h [4]: > 5 µM; SI (CC50/IC50), MDCK cells [6]: 88.052
2 | COC1C(O)C(OC2CCC3(C)C(CCC4C3CCC3(C)C(C5=CC(=O)OC5)C(OC(C)=O)CC43O)C2)OC(C)C1OC1OC(CO)C(O)C(O)C1O [oleandrigenin-β-D-glucosyl (1→4)-β-D-digitalose] |  |  |  |  |  |  |  |  |  |  |  |  |  |  | IC50 ([7]; strain A/PR/8/34, converted from µg/mL, read-out: IC50, IAV titer reduction): 1140 nM; IC50, IAV titer reduction ([7]; strain A/PR/8/34): 0.86 µg/mL (≈ 1.14 µM)
3 | C[C@]12CC[C@H](NC(=O)CO)C[C@H]1CC[C@@H]1[C@@H]2CC[C@]2(C)[C@@H](C3=CC(=O)OC3)CC[C@]12O [C11, 3β-(hydroxyacetyl)amino-3-deoxydigitoxigenin] | > 50% | ~60 nM | ~60 nM | > 2 fold over control | 62 nM | abolished viral replication; also recorded: below the detection limit | decreased | approximately 40% | decreased | > 5 µM | > 5 µM | inhibited | interfered | 17 fold | reduction of polymerase activity [11]: no significant reduction; IC50 ([6]; read-out: IC50 IAV (Strain WSN/33 (H1N1)), MDCK cells): 66 ± 6 nM
4 | CO/C1=C\C(C)=C\[C@@H](C)[C@@H](O)[C@@H](C)C/C(C)=C/C=C/[C@H](OC)[C@@H]([C@@H](C)[C@@H](O)[C@H](C)[C@@]2(O)C[C@@H](O)[C@H](C)[C@@H](C(C)C)O2)OC1=O [bafilomycin A] |  |  |  |  |  |  |  |  |  |  |  |  |  |  | IAV replication in lung tissues [15]: abolished IAV replication
5 | C[C@]12CC[C@H](NC(=O)CNCCO)C[C@H]1CC[C@@H]1[C@@H]2CC[C@]2(C)[C@@H](C3=CC(=O)OC3)CC[C@]12O [C10] | > 50% | ~60 nM | ~60 nM | did not reduce tissue integrity | 57 ± 2 nM | completely abrogated viral replication; also recorded: below the detection limit | decreased | > 50% | decreased | > 5 µM | > 5 µM | inhibited | interfered | 19 fold | reduction of viral titers [9]: 4 logs
